Experimental data from US4769382A, “Preparation for preventing and treatment of skin radiation burn lesions” (priority 1986, dated 1988).

Key:
Assay type in all cases: in vivo, random-bred albino rats
[1] = system: skin of the auricle (rat); experiment: Local radioprotective effect on skin of rat auricle upon β-irradiation (60 Gy); conditions: β-radiation; for Duration of response, dry desquamation / Duration of response, moist desquamation / Duration of response, severe erythema / Duration of response, weak erythema: Eeff 0.76 MeV, applied 20 minutes before irradiation, X ± m
Method: The effect of β-radiation was studied on the skin of floors of the auricle by way of using a flexible applicator containing a source of a soft beta-radiation of ^204 T1. The maximum energy (E) in tissues is […]. The dose rate of the employed sources was 7.2 and 12 Gy/h. […] The extent of the skin radioprotective effect was assessed by a number of clinical dermatological tests by recording visual observations over the progress of radiation dermatitis. The tests were effected by the blank method at strictly predetermined hours of the day by a team of specialists. The form of dermatitis in each irradiated skin locus (moist or dry desquamation, intense and weak erythema) was recorded daily by means of special codes over the entire observation period. The number of the same codes for every irradiated skin locus (frequencies of features) were summed up and a group mean value was calculated. […] The thus-obtained values were statistically processed and evaluated by means of the Student criterion. Therefore, the severity of radiodermatitis was quantified by means of the following tests: (a) duration of periods of light and severe erythema; (b) duration of periods of moist and dry desquamation.

[2] = system: skin of paws (rat); experiment: Radioprotective effect on skin of rat paws upon X-ray irradiation (20 and 30 Gy); conditions: 20 Gy
[3] = system: skin (rat); experiment: Comparative evaluation of radioprotective effect with known preparations, local X-ray irradiation 30 Gy
From the text: For a comparative evaluation the data obtained in a similar experiment with a number of known preparations (castamine, ionol, dimethylsulphoxide), as well as with eugenol (3-methoxy-4-hydroxyallylbenzene) and castor oil were used.
Ionol (4-methyl-2,6-ditretbutylphenol) is employed as control as an analog-antioxidant featuring a radioprotective activity.

[4] = system: back skin (rat); experiment: Antiburning effect on thermal burn (III degree) of the back skin
Method: Since the leading role in the pathogenesis of thermal death of cells is played by processes of injury of cellular membranes, the preparation according to the present invention has been tested for feasibility of its use as an antiburning preparation. […] The contact plate of the electric heater had the temperature of 200° C., the exposure time--10 seconds. […] As judged by the clinico-histological assessment, the severity of the thus-produced injury corresponded to a III degree burn. The course of treatment of the animals was started directly after effecting an experimental burn and continued till a complete healing of the wound surface. […] The ointments were prepared on lanolin or vaseline base with different content of the active principle. […] Vaseline and lanolin were used as control.

[5] = Eeff 8 keV, groups 5 (dimethylsulphoxide) and 6 (5% emulsion on vaseline), X ± m

SMILES	Diminution of response, moist desquamation [1]	Duration of response, dry desquamation [1] [days]	Duration of response, moist desquamation [1] [days]	Duration of response, severe erythema [1] [days]	Duration of response, weak erythema [1] [days]	Reduction of duration of radiation response stages, moist desquamation [3] [%]	Total weighed evaluation [3] [%]	other results
CCOC(=O)C1=C(C)NC(C)=C(C(=O)OCC)C1 [Compound of the invention, 2,6-dimethyl-3,5-diethoxycarbonyl-1,4-dihydropyridine]	100 % of the control	0.3 ± 0.2	0.0 ± 0.0	0.3 ± 0.3	1.7 ± 0.5	–	–	Diminution of response, dry desquamation [1]: 86 % of the control; Diminution of response, severe erythema [1]: 86 % of the control
C[S+](C)[O-] [Dimethylsulphoxide, dimethylsulphoxide]	100 % of the control	1.0 ± 1.2	0.0 ± 0.0	1.3 ± 1.7	1.7 ± 1.7	30.0	22.5	Diminution of response, dry desquamation [2]: 50 % of the control; Duration of response, dry desquamation [2, 5]: 2.8 ± 0.6 days; Duration of response, moist desquamation [2, 5]: 0.1 ± 0.1 days; Duration of response, severe erythema [2, 5]: 0.4 ± 0.3 days; Duration of response, weak erythema [2, 5]: 1.6 ± 0.3 days
C=CCc1ccc(O)c(OC)c1 [Eugenol, 3-methoxy-4-hydroxyallylbenzene]	–	–	–	–	–	36.0	27.5	–
Cc1cc(C(C)(C)C)c(O)c(C(C)(C)C)c1 [Ionol, 4-methyl-2,6-ditertiarybutylphenol]	–	–	–	–	–	43.0	37.85	Reduction of duration of radiation response stages, erythema [3]: 28.0%
CC(C)(CO)C(O)C(=O)NCCCO (stereo not shown) [Panthenol]	–	–	–	–	–	–	–	Healing period, female ([4]; female rats, control I (vaseline) 36.8 ± 6.8, control 2 (lanolin) 36.5 ± 6.5): 36.0 ± 7.0 days; Stimulant effect, female ([4]; female rats, relative to control I (vaseline)): +2.2%; Healing period, male ([4]; male rats, control I (vaseline) 32.8 ± 4.0, control 2 (lanolin) 33.1 ± 3.5): 29.7 ± 4.3 days; Stimulant effect, male ([4]; male rats, relative to control 2 (lanolin)): +10,3%
